According to ChEMBL document CHEMBL1157668, “Synthesis and structure-activity relationships of N-benzyl-N-(X-2-hydroxybenzyl)-N'-phenylureas and thioureas as antitumor agents” (Bioorg Med Chem, 2010):

Experiments:
[1] = biological target: Receptor tyrosine-protein kinase erbB-2 (Homo sapiens, UniProt P04626); assay: biochemical
Description: Inhibition of human cloned HER2 autophosphorylation expressed in baculovirus-infected Sf9 cells by solid-phase ELISA

[2] = tested on: MCF7; assay: cells; conditions: Homo sapiens, MCF7, 48 h
[3] = biological target: Epidermal growth factor receptor (Homo sapiens, UniProt P00533); assay: biochemical
Chain of Epidermal growth factor receptor (P00533 whole entry): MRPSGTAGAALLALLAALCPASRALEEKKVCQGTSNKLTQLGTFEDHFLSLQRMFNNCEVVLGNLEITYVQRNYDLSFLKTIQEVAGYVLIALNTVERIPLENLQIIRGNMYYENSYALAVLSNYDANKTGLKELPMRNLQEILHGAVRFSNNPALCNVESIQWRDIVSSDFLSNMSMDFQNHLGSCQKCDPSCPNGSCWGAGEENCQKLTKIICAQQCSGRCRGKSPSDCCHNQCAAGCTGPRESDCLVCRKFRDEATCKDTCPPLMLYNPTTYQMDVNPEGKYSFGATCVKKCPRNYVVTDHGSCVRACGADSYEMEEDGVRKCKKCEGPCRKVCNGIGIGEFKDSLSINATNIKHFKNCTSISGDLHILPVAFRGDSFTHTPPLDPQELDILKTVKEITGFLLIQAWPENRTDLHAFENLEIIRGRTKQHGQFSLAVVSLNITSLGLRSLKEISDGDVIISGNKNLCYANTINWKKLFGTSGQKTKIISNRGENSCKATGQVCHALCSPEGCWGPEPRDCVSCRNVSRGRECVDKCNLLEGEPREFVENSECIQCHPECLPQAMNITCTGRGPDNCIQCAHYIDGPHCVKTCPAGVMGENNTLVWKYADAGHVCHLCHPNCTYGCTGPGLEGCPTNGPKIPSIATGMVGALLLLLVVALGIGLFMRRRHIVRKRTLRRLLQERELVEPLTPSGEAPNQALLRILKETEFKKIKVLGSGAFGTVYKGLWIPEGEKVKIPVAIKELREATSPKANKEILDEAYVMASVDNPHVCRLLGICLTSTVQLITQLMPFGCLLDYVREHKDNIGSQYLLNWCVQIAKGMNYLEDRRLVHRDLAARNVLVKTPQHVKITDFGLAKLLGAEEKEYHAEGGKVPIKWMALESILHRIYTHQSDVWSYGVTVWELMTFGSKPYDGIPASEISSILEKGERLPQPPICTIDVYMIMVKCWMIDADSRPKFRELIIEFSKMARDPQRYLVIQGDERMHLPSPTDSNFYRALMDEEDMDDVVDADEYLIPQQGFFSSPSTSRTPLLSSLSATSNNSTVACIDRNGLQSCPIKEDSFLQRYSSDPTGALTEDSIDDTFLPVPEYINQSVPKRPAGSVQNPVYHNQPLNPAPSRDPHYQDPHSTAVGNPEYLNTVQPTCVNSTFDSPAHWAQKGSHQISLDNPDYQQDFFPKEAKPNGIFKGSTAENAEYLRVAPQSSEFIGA
Description: Inhibition of cloned EGFR autophosphorylation expressed in baculovirus-infected Sf9 cells by solid-phase ELISA

Chain of Receptor tyrosine-protein kinase erbB-2 (P04626 whole entry): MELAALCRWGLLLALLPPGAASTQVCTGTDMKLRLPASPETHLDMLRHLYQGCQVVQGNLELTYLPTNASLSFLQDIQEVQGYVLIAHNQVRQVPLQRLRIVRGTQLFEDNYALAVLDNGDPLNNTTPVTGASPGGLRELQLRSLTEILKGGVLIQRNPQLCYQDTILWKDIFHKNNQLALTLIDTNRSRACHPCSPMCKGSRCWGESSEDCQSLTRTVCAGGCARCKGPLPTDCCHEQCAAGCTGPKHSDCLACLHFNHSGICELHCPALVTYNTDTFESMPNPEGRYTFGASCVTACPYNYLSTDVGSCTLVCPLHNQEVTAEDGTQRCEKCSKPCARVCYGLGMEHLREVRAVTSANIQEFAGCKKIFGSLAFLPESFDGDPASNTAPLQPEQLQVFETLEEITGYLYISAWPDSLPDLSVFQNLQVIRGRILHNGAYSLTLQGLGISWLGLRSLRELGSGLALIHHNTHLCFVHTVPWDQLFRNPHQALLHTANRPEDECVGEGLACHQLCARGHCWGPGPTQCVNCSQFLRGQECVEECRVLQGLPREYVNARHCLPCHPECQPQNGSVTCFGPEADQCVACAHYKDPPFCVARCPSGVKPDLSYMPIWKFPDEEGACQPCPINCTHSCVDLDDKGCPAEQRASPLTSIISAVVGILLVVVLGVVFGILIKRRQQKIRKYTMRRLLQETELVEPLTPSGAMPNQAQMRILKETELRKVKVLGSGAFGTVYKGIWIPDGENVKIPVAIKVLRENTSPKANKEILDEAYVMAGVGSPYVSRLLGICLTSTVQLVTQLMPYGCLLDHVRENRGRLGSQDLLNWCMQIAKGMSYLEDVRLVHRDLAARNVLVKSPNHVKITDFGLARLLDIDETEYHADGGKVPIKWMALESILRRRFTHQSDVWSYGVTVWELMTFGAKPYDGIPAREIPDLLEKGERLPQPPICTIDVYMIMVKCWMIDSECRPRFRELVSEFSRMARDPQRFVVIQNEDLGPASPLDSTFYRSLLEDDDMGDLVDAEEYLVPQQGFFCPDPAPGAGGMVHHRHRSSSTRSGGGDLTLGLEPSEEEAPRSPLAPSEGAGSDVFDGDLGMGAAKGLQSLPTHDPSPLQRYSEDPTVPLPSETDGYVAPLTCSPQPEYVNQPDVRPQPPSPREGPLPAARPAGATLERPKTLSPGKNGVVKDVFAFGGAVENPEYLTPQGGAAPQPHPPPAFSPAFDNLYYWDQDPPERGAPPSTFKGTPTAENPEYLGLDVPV

| SMILES | IC50 [1] [µM] | IC50 [2] [µM] | IC50 [3] [µM] |
| --- | --- | --- | --- |
| Cc1cc(C)c(O)c(CN(Cc2ccc(O)cc2)C(=O)Nc2ccccc2)c1 | 16.1 | 8.5 | 9.26 |
| Cc1cc(C)c(O)c(CN(Cc2ccccc2)C(=S)Nc2ccccc2)c1 | > 50 | 34.1 | > 50 |
| CCCCN(Cc1cccc(Cl)c1O)C(=S)Nc1ccccc1 | 32.5 | 7.4 | 18.1 |
| Oc1c(Cl)cccc1CN(Cc1ccc(F)cc1)C(=S)Nc1ccccc1 | 1.41 | 0.52 | 0.67 |
| Oc1c(Br)cccc1CN(Cc1ccc(F)cc1)C(=S)Nc1ccccc1 | 1.87 | 0.73 | 0.98 |
| CCCCN(Cc1cc(Br)cc(Br)c1O)C(=S)Nc1ccccc1 | > 50 | 16.7 | 31.9 |
| Cc1cccc(CN(Cc2ccc(F)cc2)C(=S)Nc2ccccc2)c1O | 15.7 | 3.8 | 8.54 |
| O=C(Nc1ccccc1)N(Cc1ccc(F)cc1)Cc1cc(Cl)cc(Cl)c1O | 9.64 | 2.8 | 4.15 |
| Cc1cccc(CN(Cc2ccc(O)cc2)C(=O)Nc2ccccc2)c1O | 18.4 | 5.3 | 7.51 |
| O=C(Nc1ccccc1)N(Cc1ccc(O)cc1)Cc1cc(Cl)cc(Cl)c1O | 2.21 | 1.1 | 1.86 |
| O=C(Nc1ccccc1)N(Cc1ccc(O)cc1)Cc1cccc(Br)c1O | 2.66 | 0.25 | 1.07 |
| CCCCN(Cc1cc(Br)cc(Br)c1O)C(=O)Nc1ccccc1 | > 50 | 35 | > 50 |
| CCCCN(Cc1cccc(Br)c1O)C(=O)Nc1ccccc1 | > 50 | 9.1 | 36.9 |
| CCCCN(Cc1cc(C)cc(C)c1O)C(=O)Nc1ccccc1 | > 50 | 26 | > 50 |
| Oc1ccc(CN(Cc2cc(Cl)cc(Cl)c2O)C(=S)Nc2ccccc2)cc1 | 1.23 | 0.22 | 0.56 |
| CCCCN(Cc1cccc(C)c1O)C(=S)Nc1ccccc1 | > 50 | 23.6 | 43.2 |
| CCCCN(Cc1cc(Cl)cc(Cl)c1O)C(=S)Nc1ccccc1 | 39.8 | 12.8 | 24.6 |
| CCCCN(Cc1cccc(Cl)c1O)C(=O)Nc1ccccc1 | > 50 | 9.3 | 32.1 |

| SMILES | IC50 [1] [µM] | IC50 [2] [µM] | IC50 [3] [µM] |
| --- | --- | --- | --- |
| CCCCN(Cc1cccc(C)c1O)C(=O)Nc1ccccc1 | > 50 | 52 | > 50 |
| CCCCN(Cc1cc(Cl)cc(Cl)c1O)C(=O)Nc1ccccc1 | > 50 | 30 | > 50 |
| Oc1ccc(CN(Cc2cc(Br)cc(Br)c2O)C(=S)Nc2ccccc2)cc1 | 2.24 | 0.36 | 0.87 |
| Oc1c(Cl)cc(Cl)cc1CN(Cc1ccc(F)cc1)C(=S)Nc1ccccc1 | 6.49 | 1.1 | 1.34 |
| Oc1c(Br)cc(Br)cc1CN(Cc1ccc(F)cc1)C(=S)Nc1ccccc1 | 6.73 | 1.7 | 1.76 |
| Cc1cc(C)c(O)c(CN(Cc2ccc(F)cc2)C(=O)Nc2ccccc2)c1 | > 50 | 6.6 | 27.4 |
| O=C(Nc1ccccc1)N(Cc1ccc(O)cc1)Cc1cccc(Cl)c1O | 2.27 | 0.19 | 0.96 |
| Cc1cc(C)c(O)c(CN(Cc2ccc(F)cc2)C(=S)Nc2ccccc2)c1 | 37.8 | 10.5 | 19.4 |
| Cc1cc(C)c(O)c(CN(Cc2ccc(O)cc2)C(=S)Nc2ccccc2)c1 | 9.47 | 2.6 | 5.83 |
| O=C(Nc1ccccc1)N(Cc1ccc(F)cc1)Cc1cccc(Cl)c1O | 3.45 | 1.1 | 1.98 |
| O=C(Nc1ccccc1)N(Cc1ccc(F)cc1)Cc1cccc(Br)c1O | 5.17 | 1.4 | 2.24 |
| Oc1ccc(CN(Cc2cccc(Cl)c2O)C(=S)Nc2ccccc2)cc1 | 0.35 | 0.03 | 0.08 |
| Cc1cccc(CN(Cc2ccc(F)cc2)C(=O)Nc2ccccc2)c1O | 38.2 | 5.5 | 21.7 |
| O=C(Nc1ccccc1)N(Cc1ccc(O)cc1)Cc1cc(Br)cc(Br)c1O | 4.53 | 1.32 | 1.12 |
| O=C(Nc1ccccc1)N(Cc1ccc(F)cc1)Cc1cc(Br)cc(Br)c1O | 12.4 | 3.6 | 4.68 |
| Oc1ccc(CN(Cc2cccc(Br)c2O)C(=S)Nc2ccccc2)cc1 | 0.66 | 0.06 | 0.12 |
| Cc1cccc(CN(Cc2ccc(O)cc2)C(=S)Nc2ccccc2)c1O | 7.13 | 1.2 |  |
| CCCCN(Cc1cccc(Br)c1O)C(=S)Nc1ccccc1 | 39.5 | 14.2 | 22 |
